Experimental data taken from patent US11541051B2, “Compositions and methods for treating CDK4/6-mediated cancer” (Icahn School of Medicine at Mount Sinai, priority 2016, dated 2023).

Test system: CDK4/6
Test: Characterization of CDK4/6 degraders/disruptors in various breast cancer and melanoma cells (summary, Examples 12 and 13)
Format: cell-based
Protocol: Specific exemplary abemaciclib-, ribociclib-, and palbociclib-based CDK4/6 degraders/disruptors were characterized in various different breast cancer and melanoma cells (Examples 12 and 13, FIGS. 10-23). […] This efficacy in suppressing CDK4/6 expression and CDK4/6 activity correlated with efficacy in inhibiting cancer cell proliferation.
Protein concentrations were determined by BCA from cell lysates and equal amounts of protein are loaded to a Bis-Tris 4-12% gel. Gels were run at 80 V for 4 h using 1× running buffer (25 mM Tris, pH 8.3, […] glycine, 0.1% SDS). Proteins were transferred to a nitrocellulose membrane for 2 h at 100 V using transfer buffer (25 mM Tris, pH 8.3, […] glycine, 20% methanol). Ponceau S staining (0.1% Ponceau S, 1% acetic acid) was used to confirm transfer of proteins to the membrane followed by blocking of the membrane for 30 min at room temperature using blocking buffer (5% dry nonfat milk, 0.1% Tween, 0.02% sodium azide in TBS). The blocked membrane is incubated with primary antibodies (1:1000 dilution) in blocking buffer at 4° C. overnight. When primary phosphor-antibodies were used, then the membrane is incubated with 5% BSA instead of milk. The membrane was washed three times, 10 min each, with wash buffer (0.1% Tween in TBS) followed by incubation with secondary HRP conjugated antibody (1:5000 dilution) in 2.5% dry nonfat milk, 0.1% Tween in TBS for 1 h at room temperature. The membrane was washed three times, 10 min each, with wash buffer (0.1% Tween in TBS). Membranes are incubated with ECL for 1 min and proteins are detected after exposure to a blue autoradiographic film.

| SMILES | suppression of both CDK4/6 expression and CDK4/6 activity (summary) |
| --- | --- |
| CC(=O)c1c(C)c2cnc(Nc3ccc(N4CCN(C(=O)CCCCC(=O)N[C@H](C(=O)N5C[C@H](O)C[C@H]5C(=O)NCc5ccc(-c6scnc6C)cc5)C(C)(C)C)CC4)cn3)nc2n(C2CCCC2)c1=O [XY028-132, (2S,4R)-1-((S)-2-(6-(4-(6-((6-acetyl-8-cyclopentyl-5-methyl-7-oxo-7,8-dihydropyrido[2,3-d]pyrimidin-2-yl)amino)pyridin-3-yl)piperazin-1-yl)-6-oxohexanamido)-3,3-dimethylbutanoyl)-4-hydroxy-N-(4-(4-methylthiazol-5-yl)benzyl)pyrrolidine-2-carboxamide] | especially effective in suppressing both CDK4/6 expression and CDK4/6 activity |
| CC(=O)c1c(C)c2cnc(Nc3ccc(N4CCN(C(=O)CCCCCCNc5cccc6c5C(=O)N(C5CCC(=O)NC5=O)C6=O)CC4)cn3)nc2n(C2CCCC2)c1=O (stereo not drawn) [XY028-144, 4-((7-(4-(6-((6-acetyl-8-cyclopentyl-5-methyl-7-oxo-7,8-dihydropyrido[2,3-d]pyrimidin-2-yl)amino)pyridin-3-yl)piperazin-1-yl)-7-oxoheptyl)amino)-2-(2,6-dioxopiperidin-3-yl)isoindoline-1,3-dione] | especially effective in suppressing both CDK4/6 expression and CDK4/6 activity |
| Cc1nc2c(F)cc(-c3nc(Nc4ccc(CN5CCN(C(=O)CCCCCCC(=O)Nc6cccc7c6C(=O)N(C6CCC(=O)NC6=O)C7=O)CC5)cn4)ncc3F)cc2n1C(C)C (stereo not drawn) [YX26-66, N-(2-(2,6-dioxopiperidin-3-yl)-1,3-dioxoisoindolin-4-yl)-8-(4-((6-((5-fluoro-4-(4-fluoro-1-isopropyl-2-methyl-1H-benzo[d]imidazol-6-yl)pyrimidin-2-yl)amino)pyridin-3-yl)methyl)piperazin-1-yl)-8-oxooctanamide] | especially effective in suppressing both CDK4/6 expression and CDK4/6 activity |
| CC(=O)c1c(C)c2cnc(Nc3ccc(N4CCN(C(=O)COc5cccc6c5C(=O)N(C5CCC(=O)NC5=O)C6=O)CC4)cn3)nc2n(C2CCCC2)c1=O (stereo not drawn) [YX039-48, 4-(2-(4-(6-((6-acetyl-8-cyclopentyl-5-methyl-7-oxo-7,8-dihydropyrido[2,3-d]pyrimidin-2-yl)amino)pyridin-3-yl)piperazin-1-yl)-2-oxoethoxy)-2-(2,6-dioxopiperidin-3-yl)isoindoline-1,3-dione] | especially effective in suppressing both CDK4/6 expression and CDK4/6 activity |
| CC(=O)c1c(C)c2cnc(Nc3ccc(N4CCN(C(=O)CCc5cccc6c5CN(C5CCC(=O)NC5=O)C6=O)CC4)cn3)nc2n(C2CCCC2)c1=O (stereo not drawn) [YX039-124, 3-(4-(3-(4-(6-((6-acetyl-8-cyclopentyl-5-methyl-7-oxo-7,8-dihydropyrido[2,3-d]pyrimidin-2-yl)amino)pyridin-3-yl)piperazin-1-yl)-3-oxopropyl)-1-oxoisoindolin-2-yl)piperidine-2,6-dione] | especially effective in suppressing both CDK4/6 expression and CDK4/6 activity |
| CC(=O)c1c(C)c2cnc(Nc3ccc(N4CCN(C(=O)CCc5cccc6c5C(=O)N(C5CCC(=O)NC5=O)C6=O)CC4)cn3)nc2n(C2CCCC2)c1=O (stereo not drawn) [YX039-147, 4-(3-(4-(6-((6-acetyl-8-cyclopentyl-5-methyl-7-oxo-7,8-dihydropyrido[2,3-d]pyrimidin-2-yl)amino)pyridin-3-yl)piperazin-1-yl)-3-oxopropyl)-2-(2,6-dioxopiperidin-3-yl)isoindoline-1,3-dione] | especially effective in suppressing both CDK4/6 expression and CDK4/6 activity |
